Source: paper PMC9243172 (Heliyon, 2022)

Experiments:
[1] = target: P-gp (Homo sapiens, UniProt P08183); assay: Rhodamine-123 permeability across Caco-2 cell monolayers; settings: Caco-2, pH 7.4
[2] = target: CYP2D6 (Homo sapiens, UniProt P10635); assay: Inhibition of CYP2D6; type: biochemical
[3] = target: T1, CYP1A2 (Homo sapiens, UniProt P05177); assay: Inhibition of CYP1A2; type: biochemical
T1 sequence (P05177 1-516): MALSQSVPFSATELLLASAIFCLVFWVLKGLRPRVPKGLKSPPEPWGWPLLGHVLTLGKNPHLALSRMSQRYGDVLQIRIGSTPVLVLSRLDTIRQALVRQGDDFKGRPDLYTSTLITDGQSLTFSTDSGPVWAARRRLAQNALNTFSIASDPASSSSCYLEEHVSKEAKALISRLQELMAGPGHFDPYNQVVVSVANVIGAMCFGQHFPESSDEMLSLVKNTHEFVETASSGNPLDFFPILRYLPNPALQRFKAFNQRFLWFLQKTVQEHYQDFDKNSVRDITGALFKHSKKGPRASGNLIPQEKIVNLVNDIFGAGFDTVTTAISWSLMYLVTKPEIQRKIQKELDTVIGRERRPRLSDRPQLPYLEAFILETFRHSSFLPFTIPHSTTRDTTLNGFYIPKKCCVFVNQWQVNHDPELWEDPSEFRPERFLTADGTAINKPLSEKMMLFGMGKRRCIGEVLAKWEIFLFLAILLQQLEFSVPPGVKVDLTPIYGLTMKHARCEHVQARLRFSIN

[4] = target: CYP2C9 (Homo sapiens, UniProt P11712); assay: Inhibition of CYP2C9
Chain of CYP2C9 (P11712 whole entry): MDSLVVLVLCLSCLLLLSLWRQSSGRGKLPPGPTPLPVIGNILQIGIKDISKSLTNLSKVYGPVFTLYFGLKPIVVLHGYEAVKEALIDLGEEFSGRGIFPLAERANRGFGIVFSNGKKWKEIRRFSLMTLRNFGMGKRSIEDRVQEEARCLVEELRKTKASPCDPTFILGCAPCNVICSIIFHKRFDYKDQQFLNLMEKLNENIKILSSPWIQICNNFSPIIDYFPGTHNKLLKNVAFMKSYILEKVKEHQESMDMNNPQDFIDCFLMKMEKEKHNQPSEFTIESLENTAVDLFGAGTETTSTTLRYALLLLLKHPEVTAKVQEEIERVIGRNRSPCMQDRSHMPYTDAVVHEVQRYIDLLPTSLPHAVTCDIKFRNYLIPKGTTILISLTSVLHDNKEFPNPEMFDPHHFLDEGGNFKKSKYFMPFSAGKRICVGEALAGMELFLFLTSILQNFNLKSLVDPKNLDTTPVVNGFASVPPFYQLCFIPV

[5] = Pharmacokinetic interaction of Triphala extract with phenacetin in rats; settings: for k el: Kel; for half-life: T1/2, rats
[6] = Pharmacokinetic interaction of Triphala extract with midazolam in rats; settings: for k el: Kel; for half-life: T1/2, rats
[7] = target: CYP3A4 (Homo sapiens, UniProt P08684); assay: Inhibition of CYP3A4; type: biochemical
Chain of CYP3A4 (P08684 whole entry): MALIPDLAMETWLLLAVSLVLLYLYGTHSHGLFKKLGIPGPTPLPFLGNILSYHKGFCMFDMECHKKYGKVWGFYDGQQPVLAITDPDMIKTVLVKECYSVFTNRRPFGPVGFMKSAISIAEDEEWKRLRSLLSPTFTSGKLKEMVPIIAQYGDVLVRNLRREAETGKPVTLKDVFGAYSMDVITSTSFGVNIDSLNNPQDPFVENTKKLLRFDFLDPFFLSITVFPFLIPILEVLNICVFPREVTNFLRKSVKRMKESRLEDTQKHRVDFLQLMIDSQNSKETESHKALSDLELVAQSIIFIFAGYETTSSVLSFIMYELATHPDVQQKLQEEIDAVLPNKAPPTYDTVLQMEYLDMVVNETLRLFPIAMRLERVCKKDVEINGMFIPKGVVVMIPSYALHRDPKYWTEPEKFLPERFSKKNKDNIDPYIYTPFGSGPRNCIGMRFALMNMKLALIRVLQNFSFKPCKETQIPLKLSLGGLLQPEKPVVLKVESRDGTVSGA

[8] = male, Wistar, rat, plasma, iv, 5 mg/kg, rats, phenacetin 5 mg/kg iv, control (phenacetin alone)
[9] = male, Wistar, rat, plasma, po, 30 mg/kg, rats, phenacetin 30 mg/kg oral, control (phenacetin alone)
[10] = rats, oral co-administration of Triphala 500 mg/kg, vs control
[11] = rats, phenacetin 30 mg/kg oral, control (phenacetin alone)
[12] = male, Wistar, rat, plasma, iv, 5 mg/kg, rats, midazolam 5 mg/kg iv, control (midazolam alone)
[13] = male, Wistar, rat, plasma, po, 20 mg/kg, rats, midazolam 20 mg/kg oral, control (midazolam alone)
[14] = rats, midazolam 20 mg/kg oral, control (midazolam alone)

Chain of P-gp (P08183 whole entry): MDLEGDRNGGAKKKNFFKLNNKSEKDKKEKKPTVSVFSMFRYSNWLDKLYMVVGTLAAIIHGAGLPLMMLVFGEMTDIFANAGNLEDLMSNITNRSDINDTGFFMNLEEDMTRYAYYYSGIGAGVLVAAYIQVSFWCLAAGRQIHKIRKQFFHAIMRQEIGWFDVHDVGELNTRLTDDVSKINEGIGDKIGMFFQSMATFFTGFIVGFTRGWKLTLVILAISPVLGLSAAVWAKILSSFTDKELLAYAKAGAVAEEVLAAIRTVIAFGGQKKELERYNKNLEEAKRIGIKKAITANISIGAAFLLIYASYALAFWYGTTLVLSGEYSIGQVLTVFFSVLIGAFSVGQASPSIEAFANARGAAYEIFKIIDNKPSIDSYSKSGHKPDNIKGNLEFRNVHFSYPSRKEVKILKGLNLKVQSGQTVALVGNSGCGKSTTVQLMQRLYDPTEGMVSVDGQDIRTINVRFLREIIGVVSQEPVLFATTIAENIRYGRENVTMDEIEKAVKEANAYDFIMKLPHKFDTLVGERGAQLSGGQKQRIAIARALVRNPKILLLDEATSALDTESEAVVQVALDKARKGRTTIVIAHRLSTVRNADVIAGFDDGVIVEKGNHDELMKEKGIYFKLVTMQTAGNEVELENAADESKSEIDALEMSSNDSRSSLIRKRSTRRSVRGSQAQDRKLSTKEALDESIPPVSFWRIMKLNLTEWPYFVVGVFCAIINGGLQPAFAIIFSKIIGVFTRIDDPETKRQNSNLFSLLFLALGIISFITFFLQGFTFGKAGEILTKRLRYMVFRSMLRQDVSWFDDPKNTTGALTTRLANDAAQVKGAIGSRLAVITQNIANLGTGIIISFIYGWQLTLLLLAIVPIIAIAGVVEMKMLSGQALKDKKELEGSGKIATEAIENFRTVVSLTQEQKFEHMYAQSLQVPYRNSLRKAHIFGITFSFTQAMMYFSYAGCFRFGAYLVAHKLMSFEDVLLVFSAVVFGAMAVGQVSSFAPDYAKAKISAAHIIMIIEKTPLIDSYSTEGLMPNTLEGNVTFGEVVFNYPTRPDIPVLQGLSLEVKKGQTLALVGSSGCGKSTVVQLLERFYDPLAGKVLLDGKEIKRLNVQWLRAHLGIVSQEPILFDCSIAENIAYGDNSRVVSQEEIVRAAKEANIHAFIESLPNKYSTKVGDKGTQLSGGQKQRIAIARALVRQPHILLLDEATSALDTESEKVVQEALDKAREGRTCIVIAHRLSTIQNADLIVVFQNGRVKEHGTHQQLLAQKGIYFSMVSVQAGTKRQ
Chain of CYP2D6 (P10635 whole entry): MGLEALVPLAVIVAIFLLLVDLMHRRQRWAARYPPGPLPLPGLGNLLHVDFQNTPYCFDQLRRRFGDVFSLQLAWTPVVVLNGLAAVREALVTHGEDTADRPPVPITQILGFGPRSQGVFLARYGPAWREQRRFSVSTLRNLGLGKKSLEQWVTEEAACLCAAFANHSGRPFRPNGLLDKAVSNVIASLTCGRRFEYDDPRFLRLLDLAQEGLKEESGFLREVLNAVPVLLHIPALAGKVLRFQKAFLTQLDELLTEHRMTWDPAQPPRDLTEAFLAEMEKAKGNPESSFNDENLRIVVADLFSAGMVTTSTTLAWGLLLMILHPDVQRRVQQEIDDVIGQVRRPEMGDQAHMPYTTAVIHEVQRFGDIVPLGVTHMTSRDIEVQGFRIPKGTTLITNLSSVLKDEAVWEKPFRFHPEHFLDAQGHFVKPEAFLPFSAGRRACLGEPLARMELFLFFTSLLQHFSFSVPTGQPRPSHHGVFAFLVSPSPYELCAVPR

SMILES: COC(=O)c1ccccc1-c1c2ccc(=N)cc-2oc2cc(N)ccc12 [Rhodamine 123, rhodamine-123]
- Papp A→B at 120 min, 2.5 μg/mL [1]: 64 ± 10 ×10⁻⁶ cm/s
- Papp B→A at 120 min, 2.5 μg/mL [1]: 190 ± 3 ×10⁻⁶ cm/s
- efflux ratio at 120 min, 2.5 μg/mL [1]: 3.2 ± 0.5

SMILES: O=C(O)c1cc(O)c(O)c(O)c1 [Gallic acid]
- IC50 [2]: 265 µM
- IC50 [3]: 89.9 µM
- IC50 [4]: 338 µM

SMILES: CCOc1ccc(NC(C)=O)cc1 [phenacetin]
- AUC(0-t) ([5]; male, Wistar, rat, plasma, iv, 5 mg/kg, AUC0-t, rats, phenacetin 5 mg/kg iv, control (phenacetin alone)): 1770 ± 190 ng·h/mL
- clearance ([5]; male, Wistar, rat, plasma, iv, 5 mg/kg, CLtot, rats, phenacetin 5 mg/kg iv, control (phenacetin alone)): 48.3 mL/min
- Cmax ([5]; male, Wistar, rat, plasma, iv, 5 mg/kg, Cmax, rats, phenacetin 5 mg/kg iv, control (phenacetin alone)): 3650 ± 390 ng/mL
- k el [5, 8]: 0.000728 s⁻¹
- MRT [5, 8]: 21 ± 1.2 min
- half-life ([5]; male, Wistar, rat, plasma, iv, 5 mg/kg, phenacetin 5 mg/kg iv, control (phenacetin alone)): 16.2 ± 1.2 min
- k el [5, 9]: 0.000206 s⁻¹
- MRT [5, 9]: 79.2 ± 12 min
- half-life ([5]; male, Wistar, rat, plasma, po, 30 mg/kg, phenacetin 30 mg/kg oral, control (phenacetin alone)): 58.8 ± 7.2 min
- Tmax ([5]; male, Wistar, rat, plasma, po, 30 mg/kg, Tmax, rats, phenacetin 30 mg/kg oral, control (phenacetin alone)): 19.8 ± 6 min
- Enhancement of bioavailability (F) of phenacetin compared with control ([5]; rats, oral Triphala extract 100 mg/kg): approximately 1.2 fold
- Enhancement of bioavailability (F) of phenacetin compared with control ([5]; rats, oral Triphala extract 500 mg/kg): ~1.6 fold
- Increase of bioavailability of phenacetin [5, 10]: about 61.2%
- Vdss ([5]; rats, phenacetin 5 mg/kg iv, control (phenacetin alone)): 1.02 ± 0.1 L/h
- Vdss ([5]; rats, phenacetin 5 mg/kg iv, oral Triphala extract 100 mg/kg): 1.26 ± 0.2 L/h
- Vdss ([5]; rats, phenacetin 5 mg/kg iv, oral Triphala extract 500 mg/kg): 0.93 ± 0.1 L/h
- CLtot/F [5, 11]: 7.74 ± 2.63 L/h
- Cmax [5, 11]: 3310 ± 670 ng/mL
- Vdss/F [5, 11]: 9.06 ± 1.9 L/h

SMILES: Cc1ncc2n1-c1ccc(Cl)cc1C(c1ccccc1F)=NC2 [midazolam]
- AUC [6, 12]: 670 ± 270 ng·h/mL
- clearance ([6]; male, Wistar, rat, plasma, iv, 5 mg/kg, CLtot, rats, midazolam 5 mg/kg iv, control (midazolam alone)): 83.5 mL/min
- Cmax [6, 12]: 910 ± 130 ng/mL
- k el [6, 12]: 0.00015 s⁻¹
- MRT [6, 12]: 64.8 ± 27.6 min
- half-life ([6]; male, Wistar, rat, plasma, iv, 5 mg/kg, midazolam 5 mg/kg iv, control (midazolam alone)): 58.8 ± 23.4 min
- AUC [6, 13]: 1070 ± 70 ng·h/mL
- Cmax [6, 13]: 950 ± 130 ng/mL
- k el [6, 13]: 0.000194 s⁻¹
- MRT [6, 13]: 88.8 ± 14.4 min
- half-life ([6]; male, Wistar, rat, plasma, po, 20 mg/kg, midazolam 20 mg/kg oral, control (midazolam alone)): 63.6 ± 11.4 min
- Tmax ([6]; male, Wistar, rat, plasma, po, 20 mg/kg, Tmax, rats, midazolam 20 mg/kg oral, control (midazolam alone)): 22.8 ± 2.4 min
- Vdss ([6]; rats, midazolam 5 mg/kg iv, control (midazolam alone)): 7.44 ± 4.0 L/h
- CLtot/F [6, 14]: 18.89 ± 1.08 L/h
- Vdss/F [6, 14]: 28.05 ± 4.9 L/h
- Increase of bioavailability of midazolam [6, 10]: ~40.7%

SMILES: O=c1oc2c(O)c(O)cc3c(=O)oc4c(O)c(O)cc1c4c23 [Ellagic acid]
- IC50 [7]: 23.2 µM
- IC50 [2]: 42.4 µM
- IC50 [3]: 12.6 µM
- IC50 [4]: 27.1 µM
